In US4851414A, “Anti-dementia agent” (Kyowa Hakko Kagyo Co., Ltd., priority 1987, dated 1989):

Legend:
[1] = Activity on Electroconvulsive Shock-induced Amnesia (step-through passive avoidance, light-and-dark box); assay type: in vivo, mouse (dd strain, male); settings: for reaction latent time: Tables 2-2, 2-3 and 2-4, oral
Description: The antiamnestic activity was measured by using the light-and-dark box method. Symbols of the test compounds correspond to said compounds (Table 1).
As the test animals, 14 to 15 dd strain male mice (body weight: 23-28 g) were used for each group. As the experimental device, a step-through type passive avoidance training box composed of a light room and a dark room (light room: 130×90×90 mm; dark room 180×90×90 mm) was used.
In the acquisition trial where learning takes place, mice put in the light room move to the dark room. Each time the mice entered the dark room, electric stimulation of 0.25 mA was given to four limbs of each mouse for 2 seconds from grids on the floor.
Amnesia-inducing treatment was performed by electroconvulsive shock (2,000 V, 25 mA, 0.2 seconds) immediately after completion of the acquisition trial. After 24 hours, the test trial was conducted to measure the length of time before the mice entered the dark room. This time period, termed the reaction latent time, was recorded. A reaction latent time longer than 600 seconds was recorded as 600 seconds.
A test compound was suspended in 0.3% sodium carboxymethyl cellulose (hereinafter referred to as "CMC"). That suspension and a control of 0.3% CMC without any test compound were respectively administered to the mice 60 minutes prior to each test trial.
The effect was evaluated by Student-t test to determine whether there was a significant difference in reaction latent time between the amnesia control group and the group administered with the test compound in the passive avoidance test trial.

[2] = Acute Toxicity, rats; settings: in vivo; oral, rat (male)
Description: (§1) Acute toxicity test was carried out by orally administering Compound (I) used in the present invention to mice (male) and rats (male).

[3] = Acute Toxicity, mice; settings: in vivo; oral, mouse (male)
Description: as §1

[4] = Activity on Amnesia due to Damage of Basal Forebrain (kainic acid lesion, passive avoidance); assay type: in vivo, rat (Wistar strain, male); settings: for Number of Rats that Reached Standard Point / Number of Rats Tested: standard point 600 seconds
Description: As the test animals, 13 to 39 Wistar strain male rats (body weight: 250-300 g) were used for each group. Amnesia-inducing treatment was effected by damaging the basal forebrain through injection of 0.2 μg/μl kainic acid at the basal forebrain from both sides under anesthesia with pentobarbital-Na.
After the recovery period of about 10 days following the operation, the trial for acquiring learning (training) was performed in a similar manner using the same experimental device as in Experiment 2. After 24 hours, the test trial was carried out.
Measurement of the latent time was carried out in a similar manner as in Experiment 1. Test Compound B and idebenone were suspended in 0.3% CMC, and the suspension was administered twice 60 minutes prior to the training and 60 minutes prior to the test.
Alternatively, the suspension was administered for 9 consecutive days after the recovery period. In this case, Compound B was orally administered and idebenone was intraperiotoneally administered; and the training was conducted on day 8 and the test trial was conducted on day 9. […]

[5] = Activity on Scopolamine-induced Amnesia (step-through passive avoidance); assay type: in vivo, rat (Wistar strain, male); settings: for Number of Rats that Reached Standard Point / Number of Rats Tested: standard point 600 seconds
Description: As the experimental device, a step-through type passive avoidance training box composed of a light room and a dark room (light room: 400×400×400 mm; dark room 200×150×200 mm) was used. In the acquisition trial where learning is made, rats put in the light room move to the dark room. Each time the rats entered the dark room, electric stimulation of 2 mA was given to four limbs of each rat for 3 seconds from grids on the floor.

[6] = 2.5 mg/kg, administered for 9 days, oral
[7] = 10 mg/kg, administered for 9 days, oral
[8] = 2.5 mg/kg, administered for 9 days, intraperitoneal
[9] = 10 mg/kg, administered for 9 days, intraperitoneal
[10] = idebenone intraperitoneal, imipramine oral

CN(C)CCC=C1c2ccccc2CCc2ccccc21 [Amitriptyline, amitriptyline, reference compound]
ataxis in motor coordination, order of intensity ([1]; mouse, in vivo, po): amitriptyline>desipramine>imipramine

CC(=O)Nc1ccc(Cc2ccccn2)c([N+](=O)[O-])c1 [Compound A, α-(p-Acetylamino-o-nitrobenzyl)pyridine]
reaction latent time [1]: prolonged | LD50 [2]: > 200 mg/kg | LD50 [3]: 660 mg/kg

CCCC(=O)Nc1ccc(Cc2ccccn2)c([N+](=O)[O-])c1 [Compound B, α-(p-Butyrylamino-o-nitrobenzyl)pyridine]
reaction latent time compared with the amnestic control group ([1]; doses of 10, 40, 80 and 160 mg/kg, oral): significantly prolonged | LD50 [2]: > 850 mg/kg | Test Trial Mean Reaction Latent Time [4, 6]: 243.2 ± 73.7 s | Number of Rats that Reached Standard Point / Number of Rats Tested [4, 6]: 4/13 | Test Trial Mean Reaction Latent Time ([4]; 2.5 mg/kg, administered twice): 121.8 ± 36.5 s | Number of Rats that Reached Standard Point / Number of Rats Tested ([4]; 2.5 mg/kg, administered twice): 1/19 | Test Trial Mean Reaction Latent Time ([4]; 5 mg/kg, administered twice): 215.5 ± 60.0 s | Number of Rats that Reached Standard Point / Number of Rats Tested ([4]; 5 mg/kg, administered twice): 5/19 | Test Trial Mean Reaction Latent Time [4, 7]: 259.0 ± 78.5 s | Number of Rats that Reached Standard Point / Number of Rats Tested [4, 7]: 5/13 | Test Trial Mean Reaction Latent Time ([4]; 10 mg/kg, administered twice): 191.2 ± 57.7 s | Number of Rats that Reached Standard Point / Number of Rats Tested ([4]; 10 mg/kg, administered twice): 3/18 | Test Trial Mean Reaction Latent Time ([4]; 20 mg/kg, administered twice): 209.2 ± 60.2 s | Number of Rats that Reached Standard Point / Number of Rats Tested ([4]; 20 mg/kg, administered twice): 4/18 | Test Trial Mean Reaction Latent Time ([4]; 40 mg/kg, administered twice): 163.0 ± 51.5 s | Number of Rats that Reached Standard Point / Number of Rats Tested ([4]; 40 mg/kg, administered twice): 2/18 | improving activity ([4]; 9 consecutive days, 10 mg/kg, oral): significant (P<0.05) improving activity | activity of alleviating learning disturbance ([4]; administered twice, 2.5 mg/kg or more): showed an activity of alleviating learning disturbance | improving activity in the learning-disturbed animal model ([4]; rat, in vivo): apparent improving activity | LD50 [3]: 1530 mg/kg | Test Trial Mean Reaction Latent Time ([5]; 2.5 mg/kg, oral): 94.3 ± 30.3 s | Number of Rats that Reached Standard Point / Number of Rats Tested ([5]; 2.5 mg/kg, oral): 1/20 | Test Trial Mean Reaction Latent Time ([5]; 5 mg/kg, oral): 148.9 ± 54.3 s | Number of Rats that Reached Standard Point / Number of Rats Tested ([5]; 5 mg/kg, oral): 3/17 | Test Trial Mean Reaction Latent Time ([5]; 10 mg/kg, oral): 201.2 ± 55.5 s | Number of Rats that Reached Standard Point / Number of Rats Tested ([5]; 10 mg/kg, oral): 4/20 | Test Trial Mean Reaction Latent Time ([5]; 20 mg/kg, oral): 172.4 ± 52.6 s | Number of Rats that Reached Standard Point / Number of Rats Tested ([5]; 20 mg/kg, oral): 2/17 | Test Trial Mean Reaction Latent Time ([5]; 40 mg/kg, oral): 171.2 ± 52.5 s | Number of Rats that Reached Standard Point / Number of Rats Tested ([5]; 40 mg/kg, oral): 4/20 | antiamnestic activity ([5]; oral, dose of 5 to 40 mg/kg): showed an antiamnestic activity

CCCCC(=O)Nc1ccc(Cc2ccccn2)c([N+](=O)[O-])c1 [Compound C, α-(p-Valerylamino-o-nitrobenzyl)pyridine]
reaction latent time [1]: prolonged | LD50 [3]: > 300 mg/kg

CCCCCC(=O)Nc1ccc(Cc2ccccn2)c([N+](=O)[O-])c1 [Compound D, α-(p-Hexanoylamino-o-nitrobenzyl)pyridine]
reaction latent time [1]: prolonged | LD50 [2]: > 100 mg/kg | LD50 [3]: > 1000 mg/kg

CCCCCCCC(=O)Nc1ccc(Cc2ccccn2)c([N+](=O)[O-])c1 [Compound E, α-(p-Octanoylamino-o-nitrobenzyl)pyridine]
LD50 [2]: > 100 mg/kg | LD50 [3]: > 1000 mg/kg

CCCCCCCCCC(=O)Nc1ccc(Cc2ccccn2)c([N+](=O)[O-])c1 [Compound F, α-(p-Decanoylamino-o-nitrobenzyl)pyridine]
LD50 [2]: > 100 mg/kg | LD50 [3]: > 1000 mg/kg

CCCCCCCCCCCCCC(=O)Nc1ccc(Cc2ccccn2)c([N+](=O)[O-])c1 [Compound G, α-(p-Myristylamino-o-nitrobenzyl)pyridine]
reaction latent time [1]: prolonged | LD50 [2]: > 100 mg/kg | LD50 [3]: > 1000 mg/kg

CNCCCN1c2ccccc2CCc2ccccc21 [Desipramine, desipramine, reference compound]
ataxis in motor coordination, order of intensity ([1]; Table 2-6, oral): amitriptyline>desipramine>imipramine

COC1=C(OC)C(=O)C(CCCCCCCCCCO)=C(C)C1=O [Idebenone, idebenone, reference compound]
Test Trial Mean Reaction Latent Time [4, 8]: 382.8 ± 80.2 s | Number of Rats that Reached Standard Point / Number of Rats Tested [4, 8]: 7/13 | Test Trial Mean Reaction Latent Time [4, 9]: 178.2 ± 68.2 s | Number of Rats that Reached Standard Point / Number of Rats Tested [4, 9]: 3/13 | Test Trial Mean Reaction Latent Time ([4]; 10 mg/kg, administered twice): 52.0 ± 22.1 s | Number of Rats that Reached Standard Point / Number of Rats Tested ([4]; 10 mg/kg, administered twice): 0/14 | Test Trial Mean Reaction Latent Time ([4]; 20 mg/kg, administered twice): 15.2 ± 3.4 s | Number of Rats that Reached Standard Point / Number of Rats Tested ([4]; 20 mg/kg, administered twice): 0/14 | Test Trial Mean Reaction Latent Time ([4]; 40 mg/kg, administered twice): 27.7 ± 8.9 s | Number of Rats that Reached Standard Point / Number of Rats Tested ([4]; 40 mg/kg, administered twice): 0/14 | improving effect ([4]; 9 consecutive days, 2.5 mg/kg, intraperitoneal): apparent improving effect | improving effect ([4]; administered twice, 10 to 40 mg/kg): showed no improving effect | Test Trial Mean Reaction Latent Time ([5]; 2.5 mg/kg, intraperitoneal): 58.4 ± 19.7 s | Number of Rats that Reached Standard Point / Number of Rats Tested ([5]; 2.5 mg/kg, intraperitoneal): 0/10 | Test Trial Mean Reaction Latent Time ([5]; 5 mg/kg, intraperitoneal): 110.6 ± 30.2 s | Number of Rats that Reached Standard Point / Number of Rats Tested ([5]; 5 mg/kg, intraperitoneal): 0/10 | Test Trial Mean Reaction Latent Time ([5]; 10 mg/kg, intraperitoneal): 148.8 ± 60.2 s | Number of Rats that Reached Standard Point / Number of Rats Tested ([5]; 10 mg/kg, intraperitoneal): 0/10 | antiamnestic activity [5, 10]: showed no antiamnestic activity

CN(C)CCCN1c2ccccc2CCc2ccccc21 [Imipramine, imipramine]
ataxis in motor coordination, order of intensity ([1]; Table 2-6, oral): amitriptyline>desipramine>imipramine | Test Trial Mean Reaction Latent Time ([5]; 20 mg/kg, oral): 110.4 ± 44.3 s | Number of Rats that Reached Standard Point / Number of Rats Tested ([5]; 20 mg/kg, oral): 1/13 | Test Trial Mean Reaction Latent Time ([5]; 40 mg/kg, oral): 186.6 ± 54.0 s | Number of Rats that Reached Standard Point / Number of Rats Tested ([5]; 40 mg/kg, oral): 1/13 | antiamnestic activity [5, 10]: showed no antiamnestic activity
